Read-outs that look alike come from different tables or passages of the source.
How the values were obtained:
[1] = Plasma glycerol and triacylglycerol assay; type: in vivo, female Wistar rats; settings: obese rats, vs vehicle; for reduction of plasma glycerol levels / reduction of plasma triacylglycerol concentrations: 30 mg/kg po once daily for 28 days
Procedure: (§1) The experiment was performed on female Wistar rats (originally in the weight range 250-300 g). The rats were housed in pairs in polypropylene cages with solid floors and sawdust bedding at a temperature of 21±4°C and 55±20% humidity. Animals were maintained on a reverse phase light-dark cycle (lights off for 8 h from 09.30-17.30 h) during which time the room was illuminated by red light. Animals had free access to powdered high fat diet (VRF1 plus 20% lard), ground chocolate, ground peanuts and tap water at all times. The three different diets were contained in separate glass feeding jars with aluminum lids with a 3-4 cm hole cut in it to allow access to the food. Animals were housed in pairs for twelve weeks for the induction of obesity. Animals were then housed singly in polypropylene cages with wire grid floors to enable the food intake of each rat to be recorded. Polypropylene trays with cage pads were placed beneath each cage to detect any food spillage. Animals were accustomed to these new conditions (individual housing and the wire-grid floor cages) for at least 14 days before the start of the baseline readings.
(§2) Approximately a week before the start of the study, animals were weighed (to the nearest 0.1 g using an electronic top-pan balance) and allocated into […], each containing 9-10 animals. Following a 7 day baseline run-in period, during which the animals were dosed by the appropriate route (eg orally) once a day with vehicle (0.5% hydroxy-propyl-methylcellulose [HPMC]; 1 ml/kg) or the test drug, ie COMPOUND A (10 and 30 mg/kg po) and COMPOUND B (10 and 30 mg/kg po) once daily for 28 days.
Terminal blood samples via cardiac puncture were taken from the animals immediately after death into Sarstedt 4.5 ml lithium-heparin tubes (Cat No. 32.331). Tubes were then centrifuged at 1,500 g for 5 minutes at 4°C and the plasma removed and immediately frozen on dry ice (as 3 aliquots per sample in sealed Eppendorf tubes). Plasma samples were stored at -75°C until required for analysis. All determinations were performed on plasma samples that had been thawed only once.
Plasma triacylglycerol was determined by modification of a discrete assay kit (Sigma Triglyceride determination kit, Cat No. TR0100) to a 96-well format. The kit actually determines liberated glycerol following enzymic hydrolysis of triacylglycerol to free fatty acids and glycerol (1 mole glycerol per mole of triacylglycerol). For this reason, correction for the glycerol concentration originally present in the plasma is required. Plasma samples were, therefore, assayed in the absence (free plasma glycerol) or presence (total triacylglycerol) of lipoprotein lipase. Subtraction of free glycerol from total triacylglycerol concentration then derives the true triacylglycerol concentration.
A 2.5 mg/ml triolein equivalent glycerol standard was obtained from Sigma. The supplied Sigma mM conversion factor for this batch was 1.13 (ie 2.83 mM glycerol). A 10 mg/ml glycerol stock solution was prepared in saline and then diluted in saline to create a series of standard concentrations from 0.218 to 4.34 mM. Standards and plasma samples (undiluted) were pipetted into the 96-well plates as 10 µl additions in duplicate. Assay plates and reagents were preheated at 37°C and the reaction started by adding 200 µl of either the glycerol or total triacylglycerol reagent (reconstituted as per manufacturer's protocol) followed by incubation at 37°C for 5 minutes after which optical density at 540 nm was determined using a Molecular Devices VERSAmax tunable microplate reader. Optical density readings were then transferred to GraphPad Prism and unknown values extrapolated from a linear regression fit to the standard curve. The assay was linear up to the highest glycerol standard employed (4.34 mM). Subtraction of the glycerol concentration in the plasma samples from the total triacylglycerol concentration derived the true triacylglycerol concentration.

Herg channel = Herg channel (Homo sapiens, UniProt Q12809); experiment: Herg channel affinity (statement only, no method); type: binding; settings: low risk of prolongation of the QT-interval expected
[2] = Feeding study: body weight of obese rats with access to highly palatable cafeteria diet; type: in vivo, female Wistar rats; settings: after 28 days of treatment, dietary-induced obese rats
Procedure: as §1, §2
Food intake and body weight were measured once daily. Variations in body weight and energy levels of the different types of food were accounted for by expressing the food intake results in terms of kJ/kg rat weight.
Statistical comparisons between the body weights and daily food intakes of the different treatment groups have been made by analysis of covariance followed by Dunnett's test to compare each treatment group with the vehicle-treated controls. For the body weight data (body weights each day), the weights of the animals on Day 1 (ie immediately before the first drug treatment) were used as the covariate. Thus, means were adjusted for differences in body weight between the groups on Day 1 and standard errors of the mean (SEM) were calculated from the residuals of the statistical model. All mean body weight values on Day 1 are identical (and SEM are therefore zero) because the analysis of covariance adjusts them all to equal the 'grand mean' of the values of this day.

rat CB1 receptors = biological target: T1, rat CB1 receptors (Rattus norvegicus, UniProt P20272); experiment: Binding affinity to CB1 receptor, competitive binding with [3H]-CP 55,940 in rat cerebellum membranes
T1 construct: cerebella from male Wistar rats (250-300g) were carefully dissected on ice and homogenates were prepared; from tissue; host or cells: rat cerebellum membranes (male Wistar rats)
Procedure: Binding affinity to CB1 receptor was evaluated according to the method of Govaerts et al (2004) with the following modifications. Briefly, cerebella from male Wistar rats (250-300g) were carefully dissected on ice and homogenates were prepared in cold 50 mM Tris-HCl, 5 mM MgCl2, 1 mM EDTA, 0.25 M sucrose, pH 7.4 with a Potter-Heljheim homogeniser and the suspension was centrifuged at 1,000 x g for 5 minutes. The supernatants were collected and centrifuged at 50,000 x g for 15 min. The resulting pellets were resuspended in Tris-HCl buffer without sucrose, homogenized and incubated for 15 min at 37°C in an orbital shaker bath and centrifuged again at 50,000 x g for 15 min. Pellets were weighed, resuspended in Tris-HCl buffer without sucrose, homogenized with an Ultraturrax homogeniser at 13,500 rpm for 3 x 5 seconds and aliquoted in 0.9 ml volumes in Eppendorf tubes. Aliquots were centrifuged at 20,800 x g for 5 minutes, supernatants discarded and pellets were frozen at -80°C until use. Total protein concentration was determined using a Bio-Rad commercial assay base on the Lowry method. Competitive binding experiments were performed in presence of 1 nM [^3H]-CP 55,940 in siliconized glass tubes containing 100 µg protein/tube resuspended in 1 ml final volume of 50 mM Tris-HCl, 5 mM MgCl2, 1 mM EDTA, 0.5% (w/v) bovine serum albumin, pH 7.4. Competitors were present at various concentrations and the non-specific binding was determined in the presence of 10 µM HU-210. After 1 hour incubation at 30°C, the suspension was rapidly filtered through 0.5% PEI pre-treated GF/B fiber filters on a 96-well harvester and washed 3 times with 3ml ice-cold binding buffer without bovine serum albumin. Radioactivity on filters was measured with Wallac Winspectral 1414 counter by liquid scintillation in 6 ml Ecoscint H (National Diagnostics, U.K.). Assays were made in triplicate.
Binding data were analyzed by non-linear regression with the software GraphPad Prism Version 3.03.

Plasma leptin assay = type: in vivo, female Wistar rats; settings: obese rats
Procedure: as §1, with “Polypropylene trays with cage pads were placed beneath each cage to detect any food spillage.” left out, “readings. […]” for “readings.”
Plasma leptin concentration was determined using Assay Designs rat leptin enzyme immunometric assay kits (Cat No. 900-015) according to the manufacturer's regular protocol. […] Optical density at 450 nm was determined using a Molecular Devices VERSAmax tunable microplate reader and readings transferred to GraphPad Prism. […]

Plasma NEFA assay = type: in vivo, female Wistar rats; settings: 30 mg/kg po once daily for 28 days, obese rats
Procedure: as §1, with “Animals were housed in pairs for twelve weeks for the induction of obesity.” left out, “Polypropylene trays with cage pads were placed beneath each cage to detect any food spillage.” left out, “readings. […]” for “readings.”
Non-esterified (or free) fatty acids (NEFA) were determined by modification of a commercial clinical analyser assay kit (Wako NEFA C ACS-ACOD method) to a 96-well format. […] After exactly 10 minutes, 150 µl of reagent B was added and the plate incubated for a further 10 minutes after which optical density at 540 nm was determined using a Molecular Devices VERSAmax tunable microplate reader. […]

[3] = Determination of carcass fat content (Soxhlet); type: in vivo, female Wistar rats; settings: obese rats, g per rat
Procedure: as §1, with “Polypropylene trays with cage pads were placed beneath each cage to detect any food spillage.” left out, “readings. […]” for “readings.”
Percentage fat in the freeze-dried sample was calculated as follows: % fat = [100×(final cup weight-initial cup weight)]/sample weight [formula]
Percentage fat in the original sample was calculated using the % water as follows: % fat in original sample = % fat × [(100-% water)/100] […]

[4] = 10 mg/kg po once daily for 28 days
[5] = 1 nM [3H]-CP 55,940, read-out: IC50
[6] = 30 mg/kg po once daily for 28 days

T1 sequence (P20272 whole entry): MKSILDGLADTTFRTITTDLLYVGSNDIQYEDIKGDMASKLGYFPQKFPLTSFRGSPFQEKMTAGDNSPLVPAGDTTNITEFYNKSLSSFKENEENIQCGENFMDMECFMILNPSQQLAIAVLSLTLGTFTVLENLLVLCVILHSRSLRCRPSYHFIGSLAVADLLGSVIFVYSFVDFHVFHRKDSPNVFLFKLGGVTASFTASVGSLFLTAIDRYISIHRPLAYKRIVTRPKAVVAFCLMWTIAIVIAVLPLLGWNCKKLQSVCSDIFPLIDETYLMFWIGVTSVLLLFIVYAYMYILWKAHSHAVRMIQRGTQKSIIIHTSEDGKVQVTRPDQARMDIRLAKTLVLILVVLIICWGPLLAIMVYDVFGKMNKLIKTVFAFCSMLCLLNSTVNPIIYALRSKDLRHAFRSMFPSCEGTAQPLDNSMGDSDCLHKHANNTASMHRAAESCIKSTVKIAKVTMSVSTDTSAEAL
Sequence of Herg channel (Q12809 whole entry): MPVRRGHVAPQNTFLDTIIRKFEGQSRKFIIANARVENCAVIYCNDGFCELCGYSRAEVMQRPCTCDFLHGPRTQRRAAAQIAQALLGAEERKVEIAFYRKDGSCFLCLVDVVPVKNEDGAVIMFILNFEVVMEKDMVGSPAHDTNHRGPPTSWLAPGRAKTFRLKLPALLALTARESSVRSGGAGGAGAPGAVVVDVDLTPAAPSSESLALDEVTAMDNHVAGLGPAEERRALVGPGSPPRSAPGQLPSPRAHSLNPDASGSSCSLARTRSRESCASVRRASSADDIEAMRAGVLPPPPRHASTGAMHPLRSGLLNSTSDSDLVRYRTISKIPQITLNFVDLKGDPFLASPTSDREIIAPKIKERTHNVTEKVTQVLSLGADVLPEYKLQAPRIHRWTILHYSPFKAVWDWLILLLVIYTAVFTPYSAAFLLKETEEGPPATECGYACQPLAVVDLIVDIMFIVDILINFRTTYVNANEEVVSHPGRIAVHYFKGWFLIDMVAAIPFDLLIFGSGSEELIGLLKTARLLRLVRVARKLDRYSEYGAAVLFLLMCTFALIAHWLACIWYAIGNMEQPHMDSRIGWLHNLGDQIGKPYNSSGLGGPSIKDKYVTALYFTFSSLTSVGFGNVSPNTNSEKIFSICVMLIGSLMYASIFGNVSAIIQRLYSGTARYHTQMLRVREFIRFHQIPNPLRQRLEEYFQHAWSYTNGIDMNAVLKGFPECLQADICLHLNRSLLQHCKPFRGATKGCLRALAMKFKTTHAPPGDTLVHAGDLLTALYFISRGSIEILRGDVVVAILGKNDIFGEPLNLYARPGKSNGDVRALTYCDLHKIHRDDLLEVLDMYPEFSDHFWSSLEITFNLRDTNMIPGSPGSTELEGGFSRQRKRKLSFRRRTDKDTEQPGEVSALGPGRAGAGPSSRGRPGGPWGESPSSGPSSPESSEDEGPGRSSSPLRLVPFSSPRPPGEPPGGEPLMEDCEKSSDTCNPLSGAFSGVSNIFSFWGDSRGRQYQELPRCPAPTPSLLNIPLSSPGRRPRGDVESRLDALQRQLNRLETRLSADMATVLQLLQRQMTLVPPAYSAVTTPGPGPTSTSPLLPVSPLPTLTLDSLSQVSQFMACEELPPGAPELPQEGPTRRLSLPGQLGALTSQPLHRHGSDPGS

Compound: O=C(NN1CCCCC1)C1=NN(c2ccc(Cl)cc2Cl)[C@@H](c2ccc(Cl)cc2)C1 [Compound A, (R)-N-piperidinyl-5-(4-chlorophenyl)-1-(2,4-dichlorophenyl)-4,5-dihydro-1H-pyrazole-3-carboxamide]
- effect on plasma glycerol levels [1, 4]: no significant effect
- effect on plasma triacylglycerol concentrations [1, 4]: no significant effect
- reduction of plasma glycerol levels [1]: 33.6%
- reduction of plasma triacylglycerol concentrations [1]: 42%
- Herg channel affinity (Herg channel): relatively weak
- % reduction of body weight compared to the control group on Day 29 ([2]; 10 mg/kg po once daily): 12.0%
- % reduction of body weight compared to the control group on Day 29 ([2]; 30 mg/kg po once daily): 19.0%
- IC50 (rat CB1 receptors; [5]): 16.1 nM
- IC50 (rat CB1 receptors; 1 nM [3H]-CP 55,940, read-out: pIC50 (converted)): 21.9 nM

Compound: O=C(NN1CCCCC1)C1=NN(c2ccc(Cl)cc2Cl)[C@H](c2ccc(Cl)cc2)C1 [Compound B, (S)-N-piperidinyl-5-(4-chlorophenyl)-1-(2,4-dichlorophenyl)-4,5-dihydro-1H-pyrazole-3-carboxamide]
- reduction of plasma glycerol levels [1]: 38.9%
- reduction of plasma triacylglycerol concentrations [1]: 52.1%
- decrease of plasma leptin levels compared to the vehicle-treated control group (Plasma leptin assay; [4]): 13.7%
- decrease of plasma leptin levels compared to the vehicle-treated control group (Plasma leptin assay; [6]): 26.2%
- decrease of plasma NEFA levels compared to the vehicle-treated control group (Plasma NEFA assay): 24.4%
- % reduction of body weight compared to the control group on Day 29 ([2]; 10 mg/kg po once daily): 4.0%
- % reduction of body weight compared to the control group on Day 29 ([2]; 30 mg/kg po once daily): 7.1%
- decrease in absolute body fat compared to the vehicle-treated control group [3, 4]: 26.2 g
- decrease in absolute body fat compared to the vehicle-treated control group [3, 6]: 11.1 g
- IC50 (rat CB1 receptors; [5]): 813 nM

— patent publication EP1944295A1, “Non-racemic mixtures of (R)-N-piperidinyl-5-(4-chlorophenyl)1-(2,4-dichlorophenyl)-4,5-dihydro-1H-pyrazole-3-carboxamide and (S)-N-piperidinyl-5-(4-chlorophenyl)-1-(2,4-dichlorophenyl)-4,5-dihydro-1H-pyrazole-3-carboxamide” (Laboratorios del Dr. Esteve S.A., priority 2007, dated 2008)
